{
  "source": "paper PMC6978363",
  "about": "“Chaperone mediated detection of small molecule target binding in cells” (Nature Communications, 2020)",
  "assay_in_all_cases": "biochemical",
  "conditions_in_all_cases": "read-out: % Inhibition (at 10mM)",
  "key": {"[1]": {"biological_target": "T1, Aurora_A (Homo sapiens, UniProt O14965)", "T1 construct": "gene AURKA"}, "[2]": {"biological_target": "T2, Aurora_C (Homo sapiens, UniProt Q9UQB9)", "T2 construct": "gene AURKC"}, "[3]": {"biological_target": "Blk (Homo sapiens, UniProt P51451)"}, "[4]": {"biological_target": "T3, CK2_alpha2 (Homo sapiens, UniProt P19784)", "T3 construct": "gene CSNK2A2", "T3 sequence (P19784 whole entry)": "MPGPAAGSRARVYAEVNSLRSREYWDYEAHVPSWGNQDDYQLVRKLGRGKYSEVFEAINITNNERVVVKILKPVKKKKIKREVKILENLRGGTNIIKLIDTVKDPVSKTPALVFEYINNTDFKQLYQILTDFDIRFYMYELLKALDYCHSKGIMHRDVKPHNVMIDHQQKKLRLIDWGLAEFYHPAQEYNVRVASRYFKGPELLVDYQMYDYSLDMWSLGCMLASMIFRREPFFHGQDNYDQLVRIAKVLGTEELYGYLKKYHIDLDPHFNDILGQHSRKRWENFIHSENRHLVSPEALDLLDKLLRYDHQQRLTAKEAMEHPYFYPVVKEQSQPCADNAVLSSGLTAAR"}, "[5]": {"biological_target": "T4, DNA-PK (Homo sapiens, UniProt P78527)", "T4 construct": "gene PRKDC"}, "[6]": {"biological_target": "EphA2 (Homo sapiens, UniProt P29317)"}, "[7]": {"biological_target": "EphB1 (Homo sapiens, UniProt P54762)"}, "[8]": {"biological_target": "EphB4 (Homo sapiens, UniProt P54760)"}, "[9]": {"biological_target": "FGFR4 (Homo sapiens, UniProt P22455)"}, "[10]": {"biological_target": "Fes (Homo sapiens, UniProt P07332)"}, "[11]": {"biological_target": "Fgr (Homo sapiens, UniProt P09769)"}, "[12]": {"biological_target": "T5, GSK3_alpha (Homo sapiens, UniProt P49840)", "T5 construct": "gene GSK3A", "T5 sequence (P49840 whole entry)": "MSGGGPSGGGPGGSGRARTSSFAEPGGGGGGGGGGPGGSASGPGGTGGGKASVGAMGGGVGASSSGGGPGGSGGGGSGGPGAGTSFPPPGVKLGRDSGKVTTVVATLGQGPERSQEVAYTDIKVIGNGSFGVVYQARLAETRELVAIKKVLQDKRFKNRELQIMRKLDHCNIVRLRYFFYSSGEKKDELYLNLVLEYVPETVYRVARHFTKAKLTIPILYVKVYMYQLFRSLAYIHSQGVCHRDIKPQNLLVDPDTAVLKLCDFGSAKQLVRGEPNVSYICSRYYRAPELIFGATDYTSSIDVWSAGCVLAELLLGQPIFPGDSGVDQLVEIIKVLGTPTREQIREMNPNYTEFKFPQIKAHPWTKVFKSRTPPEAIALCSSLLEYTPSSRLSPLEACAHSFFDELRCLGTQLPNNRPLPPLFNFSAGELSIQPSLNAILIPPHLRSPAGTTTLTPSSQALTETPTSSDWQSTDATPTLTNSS"}, "[13]": {"biological_target": "T6, GSK3_beta (Homo sapiens, UniProt P49841)", "T6 construct": "gene GSK3B"}, "[14]": {"biological_target": "HIPK1 (Homo sapiens, UniProt Q86Z02)", "sequence (Q86Z02 whole entry)": "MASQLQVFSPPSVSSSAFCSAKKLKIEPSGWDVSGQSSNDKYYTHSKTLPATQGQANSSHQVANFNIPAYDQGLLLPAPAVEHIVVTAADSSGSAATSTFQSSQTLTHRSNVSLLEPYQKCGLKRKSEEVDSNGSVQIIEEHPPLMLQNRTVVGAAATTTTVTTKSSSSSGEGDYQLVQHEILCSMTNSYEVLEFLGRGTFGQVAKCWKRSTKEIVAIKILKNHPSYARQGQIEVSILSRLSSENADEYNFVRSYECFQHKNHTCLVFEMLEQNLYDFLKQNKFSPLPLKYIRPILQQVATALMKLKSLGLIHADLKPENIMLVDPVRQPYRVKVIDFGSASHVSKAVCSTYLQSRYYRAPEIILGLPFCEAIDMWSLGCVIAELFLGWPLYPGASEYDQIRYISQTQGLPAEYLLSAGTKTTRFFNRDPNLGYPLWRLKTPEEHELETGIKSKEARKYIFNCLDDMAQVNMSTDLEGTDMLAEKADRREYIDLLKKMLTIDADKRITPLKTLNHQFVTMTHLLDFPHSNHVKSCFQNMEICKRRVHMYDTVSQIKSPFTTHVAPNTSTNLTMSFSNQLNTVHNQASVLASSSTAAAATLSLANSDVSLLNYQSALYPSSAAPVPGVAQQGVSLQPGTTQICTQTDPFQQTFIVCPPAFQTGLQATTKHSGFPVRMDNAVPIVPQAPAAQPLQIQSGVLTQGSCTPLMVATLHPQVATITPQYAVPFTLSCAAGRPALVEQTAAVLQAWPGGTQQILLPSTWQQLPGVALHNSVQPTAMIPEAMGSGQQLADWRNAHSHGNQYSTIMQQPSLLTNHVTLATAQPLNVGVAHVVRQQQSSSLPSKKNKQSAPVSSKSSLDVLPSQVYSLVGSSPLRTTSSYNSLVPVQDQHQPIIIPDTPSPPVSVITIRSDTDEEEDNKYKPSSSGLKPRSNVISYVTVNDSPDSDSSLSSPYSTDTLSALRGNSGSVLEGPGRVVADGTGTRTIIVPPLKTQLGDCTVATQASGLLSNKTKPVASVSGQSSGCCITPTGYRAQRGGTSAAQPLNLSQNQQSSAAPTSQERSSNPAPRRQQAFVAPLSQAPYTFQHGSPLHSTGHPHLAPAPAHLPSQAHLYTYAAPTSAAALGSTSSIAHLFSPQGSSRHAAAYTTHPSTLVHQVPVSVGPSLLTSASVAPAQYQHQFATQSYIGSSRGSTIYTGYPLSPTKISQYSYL"}, "[15]": {"biological_target": "T7, IKK_epsilon (Homo sapiens, UniProt Q14164)", "T7 construct": "gene IKBKE", "T7 sequence (Q14164 whole entry)": "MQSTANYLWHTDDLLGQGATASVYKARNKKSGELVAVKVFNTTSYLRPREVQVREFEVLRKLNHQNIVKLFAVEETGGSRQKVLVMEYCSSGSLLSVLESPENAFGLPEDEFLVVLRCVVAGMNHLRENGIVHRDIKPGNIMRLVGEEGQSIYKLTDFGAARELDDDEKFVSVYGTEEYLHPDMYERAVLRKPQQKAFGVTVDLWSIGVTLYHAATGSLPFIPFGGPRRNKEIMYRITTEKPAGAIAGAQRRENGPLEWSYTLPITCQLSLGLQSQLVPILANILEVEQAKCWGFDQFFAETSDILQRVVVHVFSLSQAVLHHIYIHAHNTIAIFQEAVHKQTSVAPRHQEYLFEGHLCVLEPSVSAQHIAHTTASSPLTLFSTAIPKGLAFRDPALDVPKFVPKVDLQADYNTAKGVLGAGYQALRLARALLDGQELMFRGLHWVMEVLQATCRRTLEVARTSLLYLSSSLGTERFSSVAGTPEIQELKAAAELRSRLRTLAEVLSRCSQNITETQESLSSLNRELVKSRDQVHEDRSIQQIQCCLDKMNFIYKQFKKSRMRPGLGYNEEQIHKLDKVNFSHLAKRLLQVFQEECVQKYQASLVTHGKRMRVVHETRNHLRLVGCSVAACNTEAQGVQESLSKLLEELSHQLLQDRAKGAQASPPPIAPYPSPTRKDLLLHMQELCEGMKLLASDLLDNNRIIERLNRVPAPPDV"}, "[16]": {"biological_target": "T8, IRR (Homo sapiens, UniProt P14616)", "T8 construct": "gene INSRR"}, "[17]": {"biological_target": "JAK1 (Homo sapiens, UniProt P23458)", "sequence (P23458 whole entry)": "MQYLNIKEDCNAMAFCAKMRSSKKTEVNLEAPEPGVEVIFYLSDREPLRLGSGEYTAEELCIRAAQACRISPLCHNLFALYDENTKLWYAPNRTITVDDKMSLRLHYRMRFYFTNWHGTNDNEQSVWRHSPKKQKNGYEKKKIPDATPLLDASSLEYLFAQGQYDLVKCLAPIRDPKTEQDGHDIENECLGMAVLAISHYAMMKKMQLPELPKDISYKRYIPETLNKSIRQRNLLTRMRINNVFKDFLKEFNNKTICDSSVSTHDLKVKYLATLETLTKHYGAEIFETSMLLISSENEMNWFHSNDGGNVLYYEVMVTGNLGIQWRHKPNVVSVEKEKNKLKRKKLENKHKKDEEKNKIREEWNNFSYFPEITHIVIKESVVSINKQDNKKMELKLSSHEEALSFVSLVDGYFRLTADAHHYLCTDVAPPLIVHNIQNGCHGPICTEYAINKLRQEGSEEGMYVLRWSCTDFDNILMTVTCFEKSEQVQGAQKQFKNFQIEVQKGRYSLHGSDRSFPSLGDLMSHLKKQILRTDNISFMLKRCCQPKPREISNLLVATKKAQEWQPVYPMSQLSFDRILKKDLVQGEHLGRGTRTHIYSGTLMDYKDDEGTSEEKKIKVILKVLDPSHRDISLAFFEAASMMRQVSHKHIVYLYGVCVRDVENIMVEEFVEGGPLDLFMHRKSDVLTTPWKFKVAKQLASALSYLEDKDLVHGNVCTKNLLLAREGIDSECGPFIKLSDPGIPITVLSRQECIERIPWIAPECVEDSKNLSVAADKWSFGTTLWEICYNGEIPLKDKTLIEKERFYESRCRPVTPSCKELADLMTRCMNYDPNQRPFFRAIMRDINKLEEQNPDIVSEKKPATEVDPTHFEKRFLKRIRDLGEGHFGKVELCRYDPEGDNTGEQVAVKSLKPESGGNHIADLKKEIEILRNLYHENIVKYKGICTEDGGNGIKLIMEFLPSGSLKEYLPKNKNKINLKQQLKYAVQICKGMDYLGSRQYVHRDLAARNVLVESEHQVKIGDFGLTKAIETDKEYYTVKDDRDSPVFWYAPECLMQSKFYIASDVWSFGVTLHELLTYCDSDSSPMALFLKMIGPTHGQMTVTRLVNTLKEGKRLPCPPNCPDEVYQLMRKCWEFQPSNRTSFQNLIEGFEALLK"}, "[18]": {"biological_target": "Lyn (Homo sapiens, UniProt P07948)", "sequence (P07948 whole entry)": "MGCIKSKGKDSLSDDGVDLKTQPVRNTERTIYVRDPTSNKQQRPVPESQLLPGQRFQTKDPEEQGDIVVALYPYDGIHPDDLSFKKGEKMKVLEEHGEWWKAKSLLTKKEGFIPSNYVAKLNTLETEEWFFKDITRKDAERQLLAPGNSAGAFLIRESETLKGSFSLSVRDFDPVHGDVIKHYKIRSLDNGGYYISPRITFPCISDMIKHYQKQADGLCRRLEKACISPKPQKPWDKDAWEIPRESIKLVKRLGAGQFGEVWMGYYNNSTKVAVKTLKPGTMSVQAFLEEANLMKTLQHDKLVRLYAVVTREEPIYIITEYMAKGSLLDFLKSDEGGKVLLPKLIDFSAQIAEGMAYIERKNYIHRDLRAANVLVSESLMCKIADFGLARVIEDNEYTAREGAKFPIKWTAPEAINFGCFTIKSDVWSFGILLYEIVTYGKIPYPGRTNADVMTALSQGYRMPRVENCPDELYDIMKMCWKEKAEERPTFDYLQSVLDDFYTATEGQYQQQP"}, "[19]": {"biological_target": "MAPKAPK2 (Homo sapiens, UniProt P49137)", "sequence (P49137 whole entry)": "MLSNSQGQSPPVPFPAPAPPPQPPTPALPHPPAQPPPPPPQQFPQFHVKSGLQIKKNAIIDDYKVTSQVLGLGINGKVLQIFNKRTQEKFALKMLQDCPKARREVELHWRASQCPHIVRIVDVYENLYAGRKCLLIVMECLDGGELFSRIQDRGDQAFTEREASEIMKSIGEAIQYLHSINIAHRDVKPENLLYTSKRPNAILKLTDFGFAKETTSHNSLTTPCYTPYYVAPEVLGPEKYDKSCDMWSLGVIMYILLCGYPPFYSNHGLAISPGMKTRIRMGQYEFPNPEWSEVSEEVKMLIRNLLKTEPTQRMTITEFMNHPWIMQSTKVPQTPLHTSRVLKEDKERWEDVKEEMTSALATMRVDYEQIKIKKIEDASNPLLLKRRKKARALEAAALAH"}, "[20]": {"biological_target": "T9, MSK2 (Homo sapiens, UniProt O75676)", "T9 construct": "gene RPS6KA4"}, "[21]": {"biological_target": "Mink1 (Homo sapiens, UniProt Q8N4C8)"}, "[22]": {"biological_target": "NEK4 (Homo sapiens, UniProt P51957)"}, "[23]": {"biological_target": "NEK9 (Homo sapiens, UniProt Q8TD19)"}, "[24]": {"biological_target": "T10, NIM1 (Homo sapiens, UniProt Q8IY84)", "T10 construct": "gene NIM1K"}, "[25]": {"biological_target": "PAK2 (Homo sapiens, UniProt Q13177)"}, "[26]": {"biological_target": "T11, PCTK3 (Homo sapiens, UniProt Q07002)", "T11 construct": "gene CDK18"}, "[27]": {"biological_target": "T12, PKC_epsilon (Homo sapiens, UniProt Q02156)", "T12 construct": "gene PRKCE"}, "[28]": {"biological_target": "T13, PKC_gamma (Homo sapiens, UniProt P05129)", "T13 construct": "gene PRKCG"}, "[29]": {"biological_target": "ROCK2 (Homo sapiens, UniProt O75116)"}, "[30]": {"biological_target": "T14, Ron (Homo sapiens, UniProt Q04912)", "T14 construct": "gene MST1R"}, "[31]": {"biological_target": "SRPK2 (Homo sapiens, UniProt P78362)"}, "[32]": {"biological_target": "T15, Src_N1 (Homo sapiens, UniProt P12931)", "T15 construct": "gene SRC; isoform N1"}, "[33]": {"biological_target": "Syk (Homo sapiens, UniProt P43405)"}, "[34]": {"biological_target": "T16, TrkC (Homo sapiens, UniProt Q16288)", "T16 construct": "gene NTRK3"}, "[35]": {"biological_target": "T17, Yes (Homo sapiens, UniProt P07947)", "T17 construct": "gene YES1"}, "[36]": {"biological_target": "T18, ZAP-70 (Homo sapiens, UniProt P43403)", "T18 construct": "gene ZAP70"}},
  "data": [
    {"smiles": "CC(C)(O)CC(=O)NCCn1ccc2ncnc(Nc3ccc(Oc4cccc(C(F)(F)F)c4)c(Cl)c3)c21", "note": "[TAK-285]", "values": [
      {"measurement": "inhibition", "setting": "[1]", "result": 17.5, "unit": "%"},
      {"measurement": "inhibition", "setting": "[2]", "result": 22.5, "unit": "%"},
      {"measurement": "inhibition", "setting": "[3]", "result": 25, "unit": "%"},
      {"measurement": "inhibition", "setting": "[4]", "result": 6.5, "unit": "%"},
      {"measurement": "inhibition", "setting": "[5]", "result": 11.5, "unit": "%"},
      {"measurement": "inhibition", "setting": "[6]", "result": 7.5, "unit": "%"},
      {"measurement": "inhibition", "setting": "[7]", "result": -6, "unit": "%"},
      {"measurement": "inhibition", "setting": "[8]", "result": 8, "unit": "%"},
      {"measurement": "inhibition", "setting": "[9]", "result": 6, "unit": "%"},
      {"measurement": "inhibition", "setting": "[10]", "result": 15.5, "unit": "%"},
      {"measurement": "inhibition", "setting": "[11]", "result": 65, "unit": "%"},
      {"measurement": "inhibition", "setting": "[12]", "result": 10, "unit": "%"},
      {"measurement": "inhibition", "setting": "[13]", "result": 9, "unit": "%"},
      {"measurement": "inhibition", "setting": "[14]", "result": 4.5, "unit": "%"},
      {"measurement": "inhibition", "setting": "[15]", "result": 5.5, "unit": "%"},
      {"measurement": "inhibition", "setting": "[16]", "result": 6.5, "unit": "%"},
      {"measurement": "inhibition", "setting": "[17]", "result": 0, "unit": "%"},
      {"measurement": "inhibition", "setting": "[18]", "result": 39.5, "unit": "%"},
      {"measurement": "inhibition", "setting": "[19]", "result": 7.5, "unit": "%"},
      {"measurement": "inhibition", "setting": "[20]", "result": 9.5, "unit": "%"},
      {"measurement": "inhibition", "setting": "[21]", "result": 7, "unit": "%"},
      {"measurement": "inhibition", "setting": "[22]", "result": 8.5, "unit": "%"},
      {"measurement": "inhibition", "setting": "[23]", "result": 0, "unit": "%"},
      {"measurement": "inhibition", "setting": "[24]", "result": 8.5, "unit": "%"},
      {"measurement": "inhibition", "setting": "[25]", "result": 10.5, "unit": "%"},
      {"measurement": "inhibition", "setting": "[26]", "result": 6, "unit": "%"},
      {"measurement": "inhibition", "setting": "[27]", "result": 16, "unit": "%"},
      {"measurement": "inhibition", "setting": "[28]", "result": 8, "unit": "%"},
      {"measurement": "inhibition", "setting": "[29]", "result": -0.5, "unit": "%"},
      {"measurement": "inhibition", "setting": "[30]", "result": 28, "unit": "%"},
      {"measurement": "inhibition", "setting": "[31]", "result": 2.5, "unit": "%"},
      {"measurement": "inhibition", "setting": "[32]", "result": 23, "unit": "%"},
      {"measurement": "inhibition", "setting": "[33]", "result": 3.5, "unit": "%"},
      {"measurement": "inhibition", "setting": "[34]", "result": 6, "unit": "%"},
      {"measurement": "inhibition", "setting": "[35]", "result": 83, "unit": "%"},
      {"measurement": "inhibition", "setting": "[36]", "result": 2, "unit": "%"}
    ]}
  ]
}
